Results: patent US20030095958A1, “Inhibitors of bace” (priority 2001, published 2003)

Target: BACE (Homo sapiens, UniProt P56817)
Experiment: Ki Determination for the Inhibition of BACE (FS-1 peptide fluorescence cleavage assay)
Assay type: biochemical
Conditions: apparent Ki; 50 nM BACE, 10 μM FS-1 substrate, 0.1M sodium acetate pH 4.5
Procedure: Compounds were tested against BACE activity using the following modifications of the method described in J. Ermolieff et al. (2000) Biochemistry 39(51):16263.
All compound evaluations were performed in 0.1M sodium acetate (buffer), pH, 4.5, 10 μM substrate (FS-1 peptide as described in the reference above; this is commercially available), varying concentrations of the test compound or control (DMSO to yeild 2% vol/vol), and 50 nM BACE. The assay volume is 100 μL.
Two microliters of the test compound dissolved in DMSO are added to each well in a 96-well microtiter plate. Seventy eight microliters of BACE are mixed with buffer and added to each well then incubated at room temperature for 15 minutes. A stock solution of 50 μM FS-1 substrate was prepared by addition of an aliquot of FS-1 substrate which was dissolved in DMSO to the buffer and mixed well. The reaction is initiated by addition of 20 μL of the FS-1 mix to the remaining, preincubated assay components. The cleavage reaction of substrate to product is measured using a Molecular Devices fluorescence plate reader with the excitation and emission filter pairs of 355 nm and 495 nm, respectively. Apparent Ki values are determined by fitting the data to the integrated equation for competitive tight binding inhibition.

Sequence of BACE (P56817 46-501): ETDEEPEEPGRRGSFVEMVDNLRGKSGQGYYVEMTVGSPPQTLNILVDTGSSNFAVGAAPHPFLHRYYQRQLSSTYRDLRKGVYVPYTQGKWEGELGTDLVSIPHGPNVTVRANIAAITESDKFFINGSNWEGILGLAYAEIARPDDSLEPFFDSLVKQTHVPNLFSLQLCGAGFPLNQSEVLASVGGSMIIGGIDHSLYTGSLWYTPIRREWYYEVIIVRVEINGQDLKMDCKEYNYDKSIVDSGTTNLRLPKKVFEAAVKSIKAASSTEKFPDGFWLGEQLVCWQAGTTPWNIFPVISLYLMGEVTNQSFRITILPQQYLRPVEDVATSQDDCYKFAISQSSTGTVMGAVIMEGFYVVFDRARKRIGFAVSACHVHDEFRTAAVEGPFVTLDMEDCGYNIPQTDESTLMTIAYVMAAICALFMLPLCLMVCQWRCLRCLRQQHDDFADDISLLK

Ki [µM]	SMILES
< 3	O=C(Nc1cc(-c2ccc(O)cc2)c(COc2ccccc2C(F)(F)F)cc1N1CCNCC1)c1nccc2ccccc12 [Compound 186, Isoquinoline-1-carboxylic acid [4′-hydroxy-4-piperazin-1-yl-6-(2-trifluoromethyl-phenoxymethyl)-biphenyl-3-yl]-amide]
3 to 30	O=C(Nc1cc(F)c(-c2ccoc2)cc1N1CCNCC1)c1cccc2ccccc12 [Compound 160, Naphthalene-1-carboxylic acid (5-fluoro-4-furan-3-yl-2-piperazin-1-yl-phenyl)-amide]
3 to 30	OC1CNCC(COc2ccc3ccccc3c2)C1(O)c1ccc(-c2ccccc2)cc1 (stereo not shown) [Compound 412]
3 to 30	O=S(=O)(Nc1cc(C(F)(F)F)ccc1N1CCNCC1)c1ccc(-c2ccccc2)cc1 [Compound 137, Biphenyl-4-sulfonic acid (2-piperazin-1-yl-5-trifluoromethyl-phenyl)-amide]
3 to 30	O=C(Nc1cc(C(F)(F)F)ccc1N1CCNCC1)c1cnc2ccccc2n1 [Compound 189, Quinoxaline-2-carboxylic acid (2-piperazin-1-yl-5-trifluoromethyl-phenyl)-amide]
3 to 30	O=C(NCC1CNCCC1c1ccc(COc2ccccc2C(F)(F)F)cc1)c1ccc2ccccc2c1 (stereo not shown) [Compound 222, Naphthalene-2-carboxylic acid {4-[4-(2-trifluoromethyl-phenoxymethyl)-phenyl]-piperidin-3-ylmethyl}-amide]
3 to 30	CN1CC=C(c2cc(CO)c(-c3ccoc3)cc2COc2ccccc2C(F)(F)F)CC1 [Compound 388, [2-Furan-3-yl-5-(1-methyl-1,2,3,6-tetrahydro-pyridin-4-yl)-4-(2-trifluoromethyl-phenoxymethyl)-phenyl]-methanol]
> 30	O=C(Nc1ccc2ccccc2c1)C1CNCCN1C(=O)c1cccc(COc2ccccc2C(F)(F)F)c1 (stereo not shown) [Compound 206, 1-[3-(2-Trifluoromethyl-phenoxymethyl)-benzoyl]-piperazine-2-carboxylic acid naphthalen-2-ylamide]
< 3	FC(F)(F)c1ccccc1OCc1ccc(COc2ccccc2C(F)(F)F)c(N2CCNCC2)c1 [Compound 116, 1-[2,5-Bis-(2-trifluoromethyl-phenoxymethyl)-phenyl]-piperazine]
3 to 30	Oc1ccc(-c2ccc(C3=CCNCC3)c(COc3ccccc3C(F)(F)F)c2)cc1 [Compound 361, 4′-(1,2,3,6-Tetrahydro-pyridin-4-yl)-3′-(2-trifluoromethyl-phenoxymethyl)-biphenyl-4-ol]
< 3	O=C(c1ccc2ccccc2c1)n1c2c(c3cc(OCc4cc(C(F)(F)F)ccc4Cl)ccc31)CCNC2 [Compound 511, [6-(2-Chloro-5-trifluoromethyl-benzyloxy)-1,2,3,4-tetrahydro-b-carbolin-9-yl]-naphthalen-2-yl-methanone]
< 3	FC(F)(F)c1ccccc1OCc1cc(-c2ccccc2)ccc1C1=CCNCC1 [Compound 360, 4-[3-(2-Trifluoromethyl-phenoxymethyl)-biphenyl-4-yl]-1,2,3,6-tetrahydro-pyridine]
3 to 30	OCc1ccccc1-c1ccc(C2=CCNCC2)c(COc2ccccc2C(F)(F)F)c1 [Compound 378, [4′-(1,2,3,6-Tetrahydro-pyridin-4-yl)-3′-(2-trifluoromethyl-phenoxymethyl)-biphenyl-2-yl]-methanol]
< 3	O=C(OCc1ccccc1-c1ccc(C2=CCNCC2)c(COc2ccccc2C(F)(F)F)c1)c1ccccc1C(F)(F)F [Compound 380, 2-Trifluoromethyl-benzoic acid 4′-(1,2,3,6-tetrahydro-pyridin-4-yl)-3′-(2-trifluoromethyl-phenoxymethyl)-biphenyl-2-ylmethyl ester]
< 3	NC(=O)c1cccc(-c2cc(COc3ccccc3C(F)(F)F)c(C3=CCNCC3)cc2COc2ccccc2C(F)(F)F)c1 [Compound 364, 4′-(1,2,3,6-Tetrahydro-pyridin-4-yl)-2′,5′-bis-(2-trifluoromethyl-phenoxymethyl)-biphenyl-3-carboxylic acid amide]
3 to 30	O=C(Nc1cc(C(F)(F)F)ccc1N1CCNCC1)c1cccc2cccnc12 [Compound 149, Quinoline-8-carboxylic acid (2-piperazin-1-yl-5-trifluoromethyl-phenyl)-amide]

Ki [µM]	SMILES
3 to 30	Nc1ccccc1-c1ccc(C2=CCNCC2)c(COc2ccccc2C(F)(F)F)c1 [Compound 376, 4′-(1,2,3,6-Tetrahydro-pyridin-4-yl)-3′-(2-trifluoromethyl-phenoxymethyl)-biphenyl-2-ylamine]
3 to 30	O=C(O)c1cc2ccccc2cc1C(=O)NCC1CNCCC1c1ccc(COc2ccccc2C(F)(F)F)cc1 (stereo not shown) [Compound 213, 3-({4-[4-(2-Trifluoromethyl-phenoxymethyl)-phenyl]-piperidin-3-ylmethyl}-carbamoyl)-naphthalene-2-carboxylic acid]
< 3	Oc1ccc(-c2cc(COc3ccccc3C(F)(F)F)c(C3=CCNCC3)cc2COc2ccccc2C(F)(F)F)cc1 [Compound 352, 4′-(1,2,3,6-Tetrahydro-pyridin-4-yl)-2′,5′-bis-(2-trifluoromethyl-phenoxymethyl)-biphenyl-4-ol]
> 30	O=C(Nc1cc(C(F)(F)F)ccc1N1CCCNCC1)c1cccc2ccccc12 [Compound 201, Naphthalene-1-carboxylic acid (2-[1,4]diazepan-1-yl-5-trifluoromethyl-phenyl)-amide]
< 3	FC(F)(F)c1ccccc1OCc1cc(-c2ccccc2C(F)(F)F)c(COc2ccccc2C(F)(F)F)cc1C1=CCNCC1 [Compound 336, 4-[2′-Trifluoromethyl-2,5-bis-(2-trifluoromethyl-phenoxymethyl)-biphenyl-4-yl]-1,2,3,6-tetrahydro-pyridine]
> 30	COc1ccc2c(C(=O)Nc3cc(C(F)(F)F)ccc3N3CCNCC3)cccc2c1 [Compound 143, 6-Methoxy-naphthalene-1-carboxylic acid (2-piperazin-1-yl-5-trifluoromethyl-phenyl)-amide]
< 3	N#Cc1ccccc1-c1ccc(COc2ccc3c(c2)c2c(n3C(=O)c3cccc4ccccc34)CNCC2)cc1 [Compound 532, 4′-[9-(Naphthalene-1-carbonyl)-2,3,4,9-tetrahydro-1H-b-carbolin-6-yloxymethyl]-biphenyl-2-carbonitrile]
< 3	O=C(c1cccc2ccccc12)n1c2c(c3cc(OCc4ccc(C(F)(F)F)cc4)ccc31)CCNC2 [Compound 506, Naphthalen-1-yl-[6-(4-trifluoromethyl-benzyloxy)-1,2,3,4-tetrahydro-b-carbolin-9-yl]-methanone]
< 3	O=C(NC(Cc1c[nH]c2ccccc12)C(=O)N1CCCC1C(=O)NCC1CNCCC1c1ccc(COc2ccccc2C(F)(F)F)cc1)OCC1c2ccccc2-c2ccccc21 (stereo not shown) [Compound 230, {1-(1H-Indol-3-ylmethyl)-2-oxo-2-[2-{{4-[4-(2-trifluoromethyl-phenoxymethyl)-phenyl]-piperidin-3-ylmethyl}-carbamoyl)-pyrrolidin-1-yl]-ethyl}-carbamic acid 9H-fluoren-9-ylmethyl ester]
3 to 30	O=C(Nc1cc(Oc2ccc(Cl)cc2)ccc1N1CCNCC1)c1cccc2ccccc12 [Compound 133, Naphthalene-1-carboxylic acid [5-(4-chloro-phenoxy)-2-piperazin-1-yl-phenyl]-amide]
> 30	O=C(Nc1cc(C(F)(F)F)cc(Cl)c1N1CCNCC1)c1cccc2ccccc12 [Compound 148, Naphthalene-1-carboxylic acid (3-chloro-2-piperazin-1-yl-5-trifluoromethyl-phenyl)-amide]
> 30	O=C(Nc1cc(-c2ccoc2)ccc1N1CCNCC1)c1cccc2ccccc12 [Compound 152, Naphthalene-1-carboxylic acid (5-furan-3-yl-2-piperazin-1-yl-phenyl)-amide]
< 3	FC(F)Oc1ccccc1COc1ccc2c(c1)c1c(n2Cc2ccc3ccccc3c2)CNCC1 [Compound 516, 6-(2-Difluoromethoxy-benzyloxy)-9-naphthalen-2-ylmethyl-2,3,4,9-tetrahydro-1H-b-carboline]
3 to 30	FC(F)(F)c1ccccc1OCc1cc(Br)ccc1C1=CCNCC1 [Compound 377, 4-[4-Bromo-2-(2-trifluoromethyl-phenoxymethyl)-phenyl]-1,2,3,6-tetrahydro-pyridine]
3 to 30	Cc1cc(N2CCNCC2)c(NC(=O)c2cccc3ccccc23)cc1-c1ccsc1 [Compound 155, Naphthalene-1-carboxylic acid (4-methyl-2-piperazin-1-yl-5-thiophen-3-yl-phenyl)-amide]
3 to 30	OCc1cc(C2=CCNCC2)c(COc2ccccc2C(F)(F)F)cc1-c1ccoc1 [Compound 387, [2-Furan-3-yl-5-(1,2,3,6-tetrahydro-pyridin-4-yl)-4-(2-trifluoromethyl-phenoxymethyl)-phenyl]-methanol]

SMILES	Ki [µM]
O=C(NCC1CNCCC1c1ccc(COc2ccccc2C(F)(F)F)cc1)Oc1ccc2ccccc2c1 (stereo not shown) [Compound 228, {4-[4-(2-Trifluoromethyl-phenoxymethyl)-phenyl]-piperidin-3-ylmethyl}-carbamic acid naphthalen-2-yl ester]	< 3
O=C(Nc1cc(C(F)(F)F)ccc1N1CCNCC1)Oc1cccc2ccccc12 [Compound 150, (2-Piperazin-1-yl-5-trifluoromethyl-phenyl)-carbamic acid naphthalen-1-yl ester]	3 to 30
